Experiment [1] has as its target T1, human 11β-HSD1 (Homo sapiens, UniProt P28845).
T1 construct: expressed in transfected cells
The experiment in a line: 11β-HSD1 reductase activity (cortisone to cortisol) in lysates of stably transfected HEK-293 cells. The experiment is classed as biochemical. As to conditions: for remaining activity at 20 µM: 20 μM compound, 100 nM cortisone, HEK-293 cell lysates, read-out: 11β-HSD1 % of control. The protocol: (§1) Cells were grown in 10 cm dishes to 80% confluence and incubated for 16 h in steroid-free medium (charcoal-treated fetal calf serum (FCS) from HyClone, Logan, Utah). Cells were rinsed once with phosphate-buffered saline (PBS), detached and centrifuged for 3 min at 150×g. The supernatant was removed and the cell pellet quick-frozen in a dry-ice ethanol bath. At the day of experiment, cell pellets were resuspended in buffer TS2 (100 mM NaCl, 1 mM EGTA, 1 mM EDTA, 1 mM MgCl2, 250 mM sucrose, 20 mM Tris-HCl, pH 7.4), sonicated and activities determined immediately. The rate of conversion of cortisol to cortisone or the reverse reaction was determined in 96-well optical PCR reaction plates (Applied Biosystems, Foster City, Calif.) in a final volume of 22 μl, and the tubes were capped during the reaction to avoid evaporation.
Reactions were initiated simultaneously by adding 10 μl of cell lysate and 12 μl of TS2 buffer containing the appropriate concentration of the inhibitory compound to be tested, NADPH, 30 nCi of [1,2,6,7-^3H]-cortisone and unlabeled cortisone, whereby final concentrations were 400 μM NADPH and 100 nM cortisone. Activities were determined immediately after cell disruption by measuring the conversion of radiolabeled cortisone to cortisol for 10 min.
(§2) Enzyme kinetics were analyzed by non-linear regression using Data Analysis Toolbox (MDL Information Systems Inc.) assuming first-order rate kinetics. Data represent mean ±SD of four to five independent experiments.
(§3) Assay with 20 μM of the corresponding compound in the reaction mixture, added simultaneously with the substrate:
(§4) Determination of IC50 values, using 7 different inhibitor concentrations at factor 2 intervals: […]

Experiment [2] has as its target T2, human 11β-HSD2 (Homo sapiens, UniProt P80365).
T2 construct: expressed in transfected cells
T2 sequence (P80365 1-405): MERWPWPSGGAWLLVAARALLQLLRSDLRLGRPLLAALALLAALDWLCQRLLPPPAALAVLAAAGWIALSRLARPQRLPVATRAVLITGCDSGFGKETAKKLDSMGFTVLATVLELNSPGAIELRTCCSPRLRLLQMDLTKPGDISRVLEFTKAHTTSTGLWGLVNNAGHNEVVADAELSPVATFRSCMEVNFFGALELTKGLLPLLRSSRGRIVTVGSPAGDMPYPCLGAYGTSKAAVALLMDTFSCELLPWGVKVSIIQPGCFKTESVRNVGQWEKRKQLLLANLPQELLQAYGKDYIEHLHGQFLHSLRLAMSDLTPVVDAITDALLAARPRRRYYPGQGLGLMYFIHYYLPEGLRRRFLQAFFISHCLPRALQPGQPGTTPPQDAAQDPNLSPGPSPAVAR
The experiment in a line: 11β-HSD2 oxidase activity (cortisol to cortisone) in lysates of stably transfected HEK-293 cells. The experiment is classed as biochemical. As to conditions: for remaining activity at 20 µM: 20 μM compound, 25 nM cortisol, HEK-293 cell lysates, read-out: 11β-HSD2 % of control; for IC50: cell lysates, 7 inhibitor concentrations at factor 2 intervals. The protocol: as §1
Reactions were initiated by simultaneously adding 10 μl of cell lysate and 12 μl of TS2 buffer containing the appropriate concentration of the inhibitory compound to be tested, NAD^+, 30 nCi of [1,2,6,7-^3H]-cortisol and unlabeled cortisol. […] Stock solutions of the inhibitors in methanol or DMSO were diluted in TS2 buffer to yield the appropriate concentrations, whereby the concentration of methanol or DMSO in the reactions were kept below 0.1%. Control reactions with or without 0.1% of the solvent were performed. Incubation was at 37° C. for 10 min with shaking, reactions were terminated by adding 10 μl of stop solution containing 2 mM of unlabeled cortisol and cortisone dissolved in methanol. The conversion of radiolabeled cortisol was determined by separation of cortisol and cortisone using TLC and a solvent system of 9:1 (v/v) chloroform:methanol, followed by scintillation counting.
as §2, §3, §4

Experiment [3] deals with T1, human 11β-HSD1. Nature of the experiment: 11β-HSD1 activity in intact transfected HEK-293 cells. The experiment is classed as cell-based. The protocol:
(§5) Human 11β-HSD1 and 11β-HSD2 activities were assessed in intact stably transfected HEK-293 cells. Per well of a 96-well plate 30,000 cells were seeded, followed by growth for 24 h in steroid-free DMEM medium. The total volume was 30 μl and contained 100 nM of radiolabeled cortisol or cortisone as substrate and the corresponding inhibitor at a final concentration between 0-200 μM. The reaction was performed in steroid-free medium in the absence of exogenous cofactor for 1 to 3 h at 37° C. The solvent was below 0.1% (DMSO). Reactions were stopped by adding unlabeled cortisol and cortisone dissolved in methanol (2 mM final). Steroids were separated by TLC and conversion determined by scintillation counting.
as §2

Experiment [4] addresses T2, human 11β-HSD2. Nature of the experiment: 11β-HSD2 activity in intact transfected HEK-293 cells. As to conditions: read-out: IC50 for 11β-HSD2 (determined in intact transfected HEK-293 cells). The experiment is classed as cell-based. The protocol:
as §5, §2

For a further experiment, the target named is T3, 17β-HSD1 (Homo sapiens, UniProt P14061).
T3 sequence (P14061 1-328): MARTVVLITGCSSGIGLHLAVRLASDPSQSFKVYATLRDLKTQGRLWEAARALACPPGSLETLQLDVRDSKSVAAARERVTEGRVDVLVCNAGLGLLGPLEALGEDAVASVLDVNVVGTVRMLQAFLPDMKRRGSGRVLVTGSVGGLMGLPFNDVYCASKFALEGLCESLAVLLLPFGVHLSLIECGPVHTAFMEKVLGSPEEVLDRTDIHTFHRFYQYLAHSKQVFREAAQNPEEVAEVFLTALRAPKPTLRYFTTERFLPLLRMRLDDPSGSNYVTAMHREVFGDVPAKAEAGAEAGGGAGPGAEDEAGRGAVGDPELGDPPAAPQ
Nature of the experiment: Inhibition of 17β-HSD1. The experiment is classed as biochemical.

In another experiment the target is T4, 17β-HSD2 (Homo sapiens, UniProt P37059).
T4 sequence (P37059 1-387): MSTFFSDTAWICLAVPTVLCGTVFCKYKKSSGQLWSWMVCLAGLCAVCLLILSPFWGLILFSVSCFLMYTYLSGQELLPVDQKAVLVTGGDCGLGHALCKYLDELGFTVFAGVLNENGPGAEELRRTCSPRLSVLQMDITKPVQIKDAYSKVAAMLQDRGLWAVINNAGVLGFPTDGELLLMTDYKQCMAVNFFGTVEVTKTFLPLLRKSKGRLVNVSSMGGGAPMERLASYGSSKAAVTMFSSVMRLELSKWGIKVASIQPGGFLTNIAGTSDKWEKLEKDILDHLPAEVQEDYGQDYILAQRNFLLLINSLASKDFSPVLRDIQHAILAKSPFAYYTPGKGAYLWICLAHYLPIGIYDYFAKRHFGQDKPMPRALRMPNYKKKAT
Nature of the experiment: Inhibition of 17β-HSD2. It counts as biochemical.

The target of experiment [5] is T1, human 11β-HSD1. The experiment in a line: 11β-HSD1 reductase activity (cortisone to cortisol) in lysates of stably transfected HEK-293 cells. The experiment is classed as biochemical. The conditions noted are these: read-out: 11β-HSD1 % of control.

Read-outs that look alike come from different tables or passages of the source.

T1 sequence (P28845 whole entry): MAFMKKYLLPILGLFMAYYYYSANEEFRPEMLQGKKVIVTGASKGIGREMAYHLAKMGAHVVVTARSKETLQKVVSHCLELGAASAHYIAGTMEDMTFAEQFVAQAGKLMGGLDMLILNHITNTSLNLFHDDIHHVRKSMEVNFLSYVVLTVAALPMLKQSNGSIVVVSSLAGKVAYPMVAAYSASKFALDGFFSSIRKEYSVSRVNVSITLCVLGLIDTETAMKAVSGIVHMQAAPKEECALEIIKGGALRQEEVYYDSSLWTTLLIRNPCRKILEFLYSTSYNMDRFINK

For `CC(=O)OC1CC[C@]2(C)C3=C(C(=O)C[C@H]2C1(C)C)[C@]1(C)CCC(C(C)CCC(=O)O)[C@@]1(C)CC3=O` (stereo partly drawn) [BNW16, 4-((5R,10S,13R,14R)-3-Acetoxy-4,4,10,13,14-pentamethyl-7,11-dioxo-2,3,4,5,6,7,10,11,12,13,14,15,16,17-tetradecahydro-1H-cyclopenta[a]phenanthren-17-yl)-pentanoic acid], the remaining activity at 20 µM on human 11β-HSD1 [1] stood at 2.7%; on human 11β-HSD2 [2], 27.4%. The IC50 against human 11β-HSD1 [1] (IC 50 11β-HSD1, determination 1) is 149 nM; against human 11β-HSD1 [1] (IC 50 11β-HSD1, determination 2), 168 nM; against human 11β-HSD1 [1] (IC 50 11β-HSD1, determination 3) it was 114 nM; at human 11β-HSD2 [2] (experiment 2, read-out: IC 50 11β-HSD2, determination 2) it was 4040 nM; on human 11β-HSD2 [2] (experiment 3, read-out: IC 50 11β-HSD2, determination 3), 3870 nM; against human 11β-HSD1 [3], 2320 ± 330 nM. Also, the IC50 is 410 ± 80 nM on human 11β-HSD1 [3] (text b14, read-out: IC50 for 11β-HSD1 determined in intact transfected HEK-293 cells); more than 50000 nM on human 11β-HSD2 [4]; more than 30000 nM against 17β-HSD1; 28300 ± 5500 nM at 17β-HSD2. The “inhibition of 11β-HSD2 (in words)” value against human 11β-HSD2 [2] was “no inhibition”. On 17β-HSD1, the “inhibition of 17β-HSD1 (in words)” value is recorded as “no inhibition”. Further, the “inhibition of 17β-HSD2 (in words)” value on 17β-HSD2 is recorded as “no inhibition”.
Consider `CC1(C)[C@@H](OC(=O)CCC(=O)O)CC[C@]2(C)[C@H]3C(=O)C=C4[C@@H]5C[C@@](C)(C(=O)O)CC[C@]5(C)CC[C@@]4(C)[C@]3(C)CC[C@@H]12` [CBX, carbenoxolone], for which the remaining activity at 10 µM on human 11β-HSD1 [5] was 4.4%.
Turning to `COc1ccc(CCNC(=O)C23CCC(C)(C(=O)C2=O)C3(C)C)cc1OC` (stereo not shown) [BNW7, 4,7,7-Trimethyl-2,3-dioxo-bicyclo[2.2.1]heptane-1-carboxylic acid [2-(3,4-dimethoxy-phenyl)-ethyl]-amide], the remaining activity at 20 µM at human 11β-HSD1 [1] came to 9.6%; at human 11β-HSD2 [2], 140%. Moreover, the IC50 at human 11β-HSD1 [1] (cell lysates, 7 inhibitor concentrations at factor 2 intervals, experiment 1, read-out: IC 50 11β-HSD1, determination 1) amounted to 1950 nM; on human 11β-HSD1 [1] (cell lysates, 7 inhibitor concentrations at factor 2 intervals, experiment 2, read-out: IC 50 11β-HSD1, determination 2), 1910 nM; on human 11β-HSD1 [1] (cell lysates, 7 inhibitor concentrations at factor 2 intervals, experiment 3, read-out: IC 50 11β-HSD1, determination 3), 2240 nM; at human 11β-HSD1 [3] (11β-HSD1, intact HEK-293 cells, mean ± SD, read-out: IC50 in intact cells), 550 ± 50 nM. Moreover, the “inhibition of 11β-HSD2 (in words)” value at human 11β-HSD2 [2] is “did not inhibit”; against human 11β-HSD2 [2] (listed as 7), “no inhibition”. Besides, the “inhibition of 17β-HSD1 (in words)” value is “did not inhibit” against 17β-HSD1 and “no inhibition” against 17β-HSD1 (listed as 7). Besides, the “inhibition of 17β-HSD2 (in words)” value is “did not inhibit” against 17β-HSD2 and “no inhibition” against 17β-HSD2 (listed as 7).

These data come from US20080153791A1, “11Beta -Hydroxysteroid Dehydrogenases” (onpharm GmbH, priority 2005, published 2008).
